Reference: paper PMC11873239, “A covalent chemical probe for Chikungunya nsP2 cysteine protease with antialphaviral activity and proteome-wide selectivity” (Scientific Reports, 2025)

Legend:
Format in all cases: binding
[1] = molecular target: HEK293 cell lysate proteins (Homo sapiens, UniProt P81605)
[2] = molecular target: HEK293 cell lysate proteins (Homo sapiens, UniProt P15924)
[3] = molecular target: HEK293 cell lysate proteins (Homo sapiens, UniProt P41252)
[4] = molecular target: HEK293 cell lysate proteins (Homo sapiens, UniProt Q9HCY8)
[5] = molecular target: HEK293 cell lysate proteins (Homo sapiens, UniProt P06702)
[6] = molecular target: HEK293 cell lysate proteins (Homo sapiens, UniProt Q96QA5)
[7] = molecular target: HEK293 cell lysate proteins (Homo sapiens, UniProt P31025)
[8] = molecular target: HEK293 cell lysate proteins (Homo sapiens, UniProt Q3KQU3)
[9] = molecular target: HEK293 cell lysate proteins (Homo sapiens, UniProt Q15424)
[10] = molecular target: HEK293 cell lysate proteins (Homo sapiens, UniProt P31151)
[11] = molecular target: HEK293 cell lysate proteins (Homo sapiens, UniProt P22528)
[12] = molecular target: HEK293 cell lysate proteins (Homo sapiens, UniProt Q12872)
[13] = molecular target: HEK293 cell lysate proteins (Homo sapiens, UniProt P04040)
[14] = molecular target: HEK293 cell lysate proteins (Homo sapiens, UniProt P22531)
[15] = molecular target: HEK293 cell lysate proteins (Homo sapiens, UniProt Q13867)
[16] = molecular target: HEK293 cell lysate proteins (Homo sapiens, UniProt Q52LG2)
[17] = molecular target: HEK293 cell lysate proteins (Homo sapiens, UniProt Q02413)
[18] = molecular target: HEK293 cell lysate proteins (Homo sapiens, UniProt Q13835)
[19] = molecular target: HEK293 cell lysate proteins (Homo sapiens, UniProt Q14151)
[20] = molecular target: HEK293 cell lysate proteins (Homo sapiens, UniProt Q96P63)
[21] = molecular target: HEK293 cell lysate proteins (Homo sapiens, UniProt Q5T750)
[22] = molecular target: HEK293 cell lysate proteins (Homo sapiens, UniProt Q6ZVX7)
[23] = molecular target: HEK293 cell lysate proteins (Homo sapiens, UniProt P25311)
[24] = molecular target: HEK293 cell lysate proteins (Homo sapiens, UniProt P60709)
[25] = molecular target: HEK293 cell lysate proteins (Homo sapiens, UniProt Q8N1N4)
[26] = molecular target: HEK293 cell lysate proteins (Homo sapiens, UniProt P26358)
[27] = molecular target: HEK293 cell lysate proteins (Homo sapiens, UniProt P02788)
[28] = molecular target: HEK293 cell lysate proteins (Homo sapiens, UniProt Q14684)
[29] = molecular target: HEK293 cell lysate proteins (Homo sapiens, UniProt P32119)
[30] = molecular target: HEK293 cell lysate proteins (Homo sapiens, UniProt P05109)
[31] = molecular target: HEK293 cell lysate proteins (Homo sapiens, UniProt Q15648)
[32] = molecular target: HEK293 cell lysate proteins (Homo sapiens, UniProt P84103)
[33] = molecular target: HEK293 cell lysate proteins (Homo sapiens, UniProt Q08188)
[34] = molecular target: HEK293 cell lysate proteins (Homo sapiens, UniProt Q13428)
Chain of HEK293 cell lysate proteins (Homo sapiens, UniProt Q13428) (Q13428 whole entry): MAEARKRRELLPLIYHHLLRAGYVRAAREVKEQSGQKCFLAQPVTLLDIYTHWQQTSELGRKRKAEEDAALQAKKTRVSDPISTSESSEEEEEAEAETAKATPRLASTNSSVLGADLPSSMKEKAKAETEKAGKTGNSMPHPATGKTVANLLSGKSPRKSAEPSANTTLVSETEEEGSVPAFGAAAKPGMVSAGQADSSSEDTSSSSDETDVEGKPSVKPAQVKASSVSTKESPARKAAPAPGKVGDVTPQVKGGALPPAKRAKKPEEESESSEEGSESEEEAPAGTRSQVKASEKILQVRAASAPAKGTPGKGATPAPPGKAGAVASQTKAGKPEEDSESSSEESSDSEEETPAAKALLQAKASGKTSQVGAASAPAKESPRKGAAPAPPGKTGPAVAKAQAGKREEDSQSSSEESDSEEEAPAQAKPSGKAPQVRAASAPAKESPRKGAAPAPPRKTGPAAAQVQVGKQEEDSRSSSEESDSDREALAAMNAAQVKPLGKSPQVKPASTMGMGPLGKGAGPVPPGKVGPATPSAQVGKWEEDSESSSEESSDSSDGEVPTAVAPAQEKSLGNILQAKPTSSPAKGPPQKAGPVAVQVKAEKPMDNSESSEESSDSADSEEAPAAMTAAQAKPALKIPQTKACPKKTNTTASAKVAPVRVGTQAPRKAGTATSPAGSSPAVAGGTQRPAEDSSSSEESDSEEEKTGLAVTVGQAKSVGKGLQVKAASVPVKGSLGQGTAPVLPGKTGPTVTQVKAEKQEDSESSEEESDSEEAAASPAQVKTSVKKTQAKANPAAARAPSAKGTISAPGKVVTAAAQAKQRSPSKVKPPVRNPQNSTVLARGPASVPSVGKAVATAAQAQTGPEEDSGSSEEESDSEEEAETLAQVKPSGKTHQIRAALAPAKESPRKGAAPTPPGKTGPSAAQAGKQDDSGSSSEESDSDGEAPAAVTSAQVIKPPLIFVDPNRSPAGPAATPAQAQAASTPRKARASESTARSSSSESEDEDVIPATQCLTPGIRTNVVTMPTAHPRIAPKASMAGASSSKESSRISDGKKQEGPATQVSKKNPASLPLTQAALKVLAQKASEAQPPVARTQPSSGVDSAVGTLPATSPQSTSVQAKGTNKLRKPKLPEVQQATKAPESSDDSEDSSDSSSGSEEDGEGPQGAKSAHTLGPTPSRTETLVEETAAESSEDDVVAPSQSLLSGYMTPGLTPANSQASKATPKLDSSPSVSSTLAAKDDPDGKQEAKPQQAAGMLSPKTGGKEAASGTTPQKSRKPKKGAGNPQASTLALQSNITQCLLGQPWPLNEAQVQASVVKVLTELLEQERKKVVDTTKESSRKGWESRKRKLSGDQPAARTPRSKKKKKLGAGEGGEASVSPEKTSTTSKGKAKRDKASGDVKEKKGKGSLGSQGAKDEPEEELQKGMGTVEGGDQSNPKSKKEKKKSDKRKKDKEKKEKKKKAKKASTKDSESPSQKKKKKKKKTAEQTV

Chain of HEK293 cell lysate proteins (Homo sapiens, UniProt Q5T750) (Q5T750 whole entry): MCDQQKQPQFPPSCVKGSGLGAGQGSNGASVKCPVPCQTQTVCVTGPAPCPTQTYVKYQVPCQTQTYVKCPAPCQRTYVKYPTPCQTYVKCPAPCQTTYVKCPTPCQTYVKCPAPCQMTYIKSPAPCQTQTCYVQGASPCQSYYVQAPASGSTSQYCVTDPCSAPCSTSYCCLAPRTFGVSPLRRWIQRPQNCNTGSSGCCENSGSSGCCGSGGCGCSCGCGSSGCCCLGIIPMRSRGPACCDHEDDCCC
Chain of HEK293 cell lysate proteins (Homo sapiens, UniProt Q6ZVX7) (Q6ZVX7 whole entry): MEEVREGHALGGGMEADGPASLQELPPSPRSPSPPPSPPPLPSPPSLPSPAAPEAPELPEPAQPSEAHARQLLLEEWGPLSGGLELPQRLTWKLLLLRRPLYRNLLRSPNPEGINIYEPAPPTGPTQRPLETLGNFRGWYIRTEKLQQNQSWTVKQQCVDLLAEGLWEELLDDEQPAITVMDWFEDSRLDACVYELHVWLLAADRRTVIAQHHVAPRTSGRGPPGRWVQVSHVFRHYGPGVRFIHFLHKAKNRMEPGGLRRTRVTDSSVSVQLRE
Chain of HEK293 cell lysate proteins (Homo sapiens, UniProt Q96QA5) (Q96QA5 whole entry): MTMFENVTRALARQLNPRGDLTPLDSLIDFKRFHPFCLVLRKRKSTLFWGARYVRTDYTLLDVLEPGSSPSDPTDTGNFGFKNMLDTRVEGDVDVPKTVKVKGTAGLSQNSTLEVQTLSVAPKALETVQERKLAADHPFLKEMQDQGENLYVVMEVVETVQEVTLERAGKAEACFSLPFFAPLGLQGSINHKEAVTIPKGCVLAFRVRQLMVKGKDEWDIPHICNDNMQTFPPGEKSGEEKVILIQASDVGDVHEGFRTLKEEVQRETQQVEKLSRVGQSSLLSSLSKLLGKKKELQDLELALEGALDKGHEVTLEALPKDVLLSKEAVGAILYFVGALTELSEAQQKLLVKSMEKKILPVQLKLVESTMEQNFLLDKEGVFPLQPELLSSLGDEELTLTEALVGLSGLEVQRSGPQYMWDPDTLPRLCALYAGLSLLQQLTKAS
Chain of HEK293 cell lysate proteins (Homo sapiens, UniProt Q96P63) (Q96P63 whole entry): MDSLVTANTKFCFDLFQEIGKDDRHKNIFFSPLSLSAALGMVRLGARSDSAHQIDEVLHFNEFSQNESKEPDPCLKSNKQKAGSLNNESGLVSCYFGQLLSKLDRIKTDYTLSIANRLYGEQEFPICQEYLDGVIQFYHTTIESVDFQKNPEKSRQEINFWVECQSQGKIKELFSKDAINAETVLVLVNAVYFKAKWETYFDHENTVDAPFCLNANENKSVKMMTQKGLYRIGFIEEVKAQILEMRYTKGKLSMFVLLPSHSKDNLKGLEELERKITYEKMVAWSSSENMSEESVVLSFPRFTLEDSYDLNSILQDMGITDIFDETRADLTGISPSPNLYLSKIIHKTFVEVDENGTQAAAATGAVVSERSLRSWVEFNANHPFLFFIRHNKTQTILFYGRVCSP
Chain of HEK293 cell lysate proteins (Homo sapiens, UniProt Q13835) (Q13835 whole entry): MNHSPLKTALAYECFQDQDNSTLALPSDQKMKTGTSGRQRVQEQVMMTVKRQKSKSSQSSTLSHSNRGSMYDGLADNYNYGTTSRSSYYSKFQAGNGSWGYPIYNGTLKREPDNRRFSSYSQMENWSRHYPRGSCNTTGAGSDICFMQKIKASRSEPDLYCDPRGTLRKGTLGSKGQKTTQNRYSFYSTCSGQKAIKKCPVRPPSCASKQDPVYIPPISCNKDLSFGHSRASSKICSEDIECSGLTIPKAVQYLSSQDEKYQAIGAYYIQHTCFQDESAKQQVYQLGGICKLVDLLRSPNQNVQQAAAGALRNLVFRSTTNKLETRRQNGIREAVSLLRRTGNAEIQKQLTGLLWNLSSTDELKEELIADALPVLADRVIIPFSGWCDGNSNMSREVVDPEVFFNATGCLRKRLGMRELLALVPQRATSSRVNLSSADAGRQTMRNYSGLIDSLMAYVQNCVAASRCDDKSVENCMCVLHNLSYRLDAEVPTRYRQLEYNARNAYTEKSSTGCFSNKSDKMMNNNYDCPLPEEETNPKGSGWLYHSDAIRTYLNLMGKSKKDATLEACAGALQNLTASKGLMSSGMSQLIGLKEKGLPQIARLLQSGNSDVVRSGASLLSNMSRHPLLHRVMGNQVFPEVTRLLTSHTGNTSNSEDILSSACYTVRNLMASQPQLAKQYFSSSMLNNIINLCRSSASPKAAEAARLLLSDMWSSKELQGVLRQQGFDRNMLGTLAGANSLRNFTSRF
Chain of HEK293 cell lysate proteins (Homo sapiens, UniProt Q14151) (Q14151 whole entry): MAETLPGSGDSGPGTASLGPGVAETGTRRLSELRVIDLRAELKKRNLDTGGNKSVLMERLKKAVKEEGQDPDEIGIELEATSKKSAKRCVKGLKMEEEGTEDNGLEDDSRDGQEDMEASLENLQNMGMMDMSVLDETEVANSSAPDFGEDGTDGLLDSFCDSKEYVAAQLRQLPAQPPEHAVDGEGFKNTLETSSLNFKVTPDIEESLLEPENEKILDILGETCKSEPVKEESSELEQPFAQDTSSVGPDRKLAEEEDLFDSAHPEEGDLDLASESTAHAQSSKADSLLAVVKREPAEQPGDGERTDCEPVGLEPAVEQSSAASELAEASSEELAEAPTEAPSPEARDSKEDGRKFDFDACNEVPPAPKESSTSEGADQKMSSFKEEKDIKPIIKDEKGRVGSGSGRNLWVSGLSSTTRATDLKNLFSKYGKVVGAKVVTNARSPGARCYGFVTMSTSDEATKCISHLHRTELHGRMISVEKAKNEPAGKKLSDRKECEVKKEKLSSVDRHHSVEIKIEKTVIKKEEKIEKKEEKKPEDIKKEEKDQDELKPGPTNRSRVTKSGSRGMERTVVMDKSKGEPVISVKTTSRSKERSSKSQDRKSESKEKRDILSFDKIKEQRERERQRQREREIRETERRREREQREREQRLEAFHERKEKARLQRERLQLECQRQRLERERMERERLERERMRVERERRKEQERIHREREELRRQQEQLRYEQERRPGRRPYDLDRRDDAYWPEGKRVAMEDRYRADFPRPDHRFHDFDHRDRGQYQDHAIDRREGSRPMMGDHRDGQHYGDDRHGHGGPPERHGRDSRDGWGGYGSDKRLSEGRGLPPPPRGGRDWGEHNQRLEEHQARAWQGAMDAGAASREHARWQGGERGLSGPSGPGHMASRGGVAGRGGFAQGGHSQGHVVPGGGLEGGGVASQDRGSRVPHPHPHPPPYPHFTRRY
Chain of HEK293 cell lysate proteins (Homo sapiens, UniProt P84103) (P84103 whole entry): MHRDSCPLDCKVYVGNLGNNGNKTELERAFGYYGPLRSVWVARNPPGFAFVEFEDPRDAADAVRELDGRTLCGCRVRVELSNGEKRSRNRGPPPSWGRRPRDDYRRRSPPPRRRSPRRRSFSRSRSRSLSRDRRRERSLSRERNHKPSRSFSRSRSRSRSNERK
Chain of HEK293 cell lysate proteins (Homo sapiens, UniProt P31025) (P31025 19-176): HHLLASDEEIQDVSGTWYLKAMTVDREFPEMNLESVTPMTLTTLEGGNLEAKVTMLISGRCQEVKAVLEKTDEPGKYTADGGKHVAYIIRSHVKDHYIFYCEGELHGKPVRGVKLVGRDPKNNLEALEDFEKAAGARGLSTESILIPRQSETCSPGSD
Chain of HEK293 cell lysate proteins (Homo sapiens, UniProt P31151) (P31151 whole entry): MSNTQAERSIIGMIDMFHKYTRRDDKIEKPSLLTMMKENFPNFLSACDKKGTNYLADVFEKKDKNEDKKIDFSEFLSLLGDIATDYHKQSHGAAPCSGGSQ

For `C#CCOc1ccccc1-c1cc(C(=O)NC/C=C/S(C)(=O)=O)on1` [VS, (E)-N-(3-(methylsulfonyl)allyl)−3-(2-(prop-2-yn-1-yloxy)phenyl)isoxazole-5-carboxamide], the Log2 fold change [1] was 1.36, the Log2 fold change [2] was 2.05 and the Log2 fold change [3] was 1.48. The Log2 fold change [4] was 1.98, the Log2 fold change [5] was 1.63 and the Log2 fold change [6] was 1.51. For the same compound, the Log2 fold change [7] was 1.54, the Log2 fold change [8] was -2.07 and the Log2 fold change [9] was 1.46. The Log2 fold change [10] was -1.22, the Log2 fold change [11] was 2.72 and the Log2 fold change [12] was -1.75. It also gave a Log2 fold change [13] of 1.41, a Log2 fold change [14] of 2.37 and a Log2 fold change [15] of 1.56. It also gave a Log2 fold change [16] of 3.14, a Log2 fold change [17] of 1.36 and a Log2 fold change [18] of 3.81. The Log2 fold change [19] was 1.50, the Log2 fold change [20] was 1.71 and the Log2 fold change [21] was 2.49. The Log2 fold change [22] was 2.74, the Log2 fold change [23] was 1.43 and the Log2 fold change [24] was 1.54. For the same compound, the Log2 fold change [25] was 1.62, the Log2 fold change [26] was 1.64 and the Log2 fold change [27] was 1.10. The Log2 fold change [28] was -2.16, the Log2 fold change [29] was 2.04 and the Log2 fold change [30] was 1.58. It also gave a Log2 fold change [31] of -1.21, a Log2 fold change [32] of 1.43 and a Log2 fold change [33] of 1.61. For the same compound, the Log2 fold change [34] was 1.02.
